In patent publication US6030963A, “16-ene-26,27-bishomo cholecalciferols” (Hoffmann-La Roche Inc., priority 1998, dated 2000):

Key:
[1] = Calcium tolerance test in mice (weight gain, highest tolerated dose); conditions: mouse, in vivo, sc, daily subcutaneous, 4 consecutive days, body weight before and at end of 5 day treatment period, read-out: HTD (highest tolerated dose: dose which results in zero weight gain during treatment period)
Description: Calcium Tolerance Test In Mice
Profound changes in calcium homeostasis strongly affect the weight development of mice.
Mice (25-30 g body weight) received daily subcutaneous administrations of the compound for 4 consecutive days. Body weight was registered just before and at the end of a […] treatment period. The "highest tolerated dose" (HTD) is the dose which results in zero weight gain during this treatment period.

HL-60 cells = assay: HL-60 cell differentiation (NBT reduction, oxidative burst potential); format: cell-based; conditions: Homo sapiens, 72 h, 3 days incubation, NBT reduction at 540 nm, mean of 3 wells, S.E.M. between 5 and 10%, read-out: ED50 (concentration leading to 50% of maximal differentiation achieved with 100-1000 nM calcitriol)
Experimental: HL-60 Cell Differentiation
The induction of differentiation of HL-60 cells was assayed by measuring their oxidative burst potential via the reduction of nitrobluetetrazolium (NBT).
HL-60 cells (30,000 cells in 90 μl of supplemented RPMI medium) were seeded into flat-bottomed microliter wells. Immediately after seeding, 10 μl of test compounds listed below in Table I diluted in supplemented RPMI medium were added to the wells to yield final concentrations of between 10^-11 and 10^-6 M (starting from stock solutions of 10^-2 M in ethanol, stored at -20° C. and protected from light). After 3 days, medium was removed from the wells with a multichannel pipette and replaced with 100 μl of NBT solution (1 mg/ml in phosphate buffered saline with 200 nM phorbol myristate acetate). Following an additional hour incubation at 37° C. the NBT solution was removed and 100 μl of 10% sodium dodecyl sulfate in 0.01 N HCl was added. The amount of the reduced NBT was quantified photometrically at 540 nm using an automated plate reader. The mean of 3 wells was calculated. […] Values were expressed as percent of maximal differentiation achieved with 100-1000 nM calcitriol in the same experiment.

| SMILES | MTD [1] [µg/kg] | EC50 (HL-60 cells) [nM] |
| --- | --- | --- |
| C=C1/C(=C\C=C2/CCC[C@]3(C)C([C@H](C)C/C=C\C(O)(CC)CC)=CC[C@@H]23)C[C@@H](O)C[C@@H]1O [1,25-Dihydroxy-16,23Z-diene-26,27-bishomo-cholecalciferol] | 2.5 | 6.2 |
| C=C1/C(=C\C=C2/CCC[C@]3(C)C([C@H](C)C/C=C/C(O)(CC)CC)=CC[C@@H]23)C[C@@H](O)C[C@@H]1O [1,25-Dihydroxy-16,23E-diene-26,27-bishomo-cholecalciferol] | 2 | 3.8 |
| C=C1/C(=C\C=C2/CCC[C@]3(C)C([C@H](C)CC#CC(O)(CC)CC)=CC[C@@H]23)C[C@@H](O)C[C@@H]1O [1,25-Dihydroxy-16-ene-23-yne-26,27-bishomo-cholecalciferol] | 4 | 2.5 |
